Assay results taken from patent publication US12410187B2, “Fused tricyclic compounds useful as anticancer agents” (ASTRAZENECA AB, priority 2019, dated 2025).
Like-named read-outs stand apart in the source and are kept apart here.

What was measured:
[1] = test system: MDR1 (Pgp) and BCRP; assay: Blood brain barrier penetrant assessment: efflux ratio in MDCK_MDR1_BCRP cells; format: in vitro ADME; details: human, MDCK cells doubly transfected with MDR1 (Pgp) and BCRP, ratio of 2 or less = potential for good BBB penetration, read-out: Hu MDCK-MDR1-BCRP (0.1 uM) Mean Efflux Ratio
Description: In order to evaluate blood brain barrier (BBB) penetrant properties the efflux properties of compounds according to the specification was measured in cells transfected with the major efflux pumps expressed in the endothelial cells of the BBB. The assessment of efflux properties was performed using Madin-Darby Canine Kidney (MDCK) cells doubly transfected with MDR1 (Pgp) and BCRP. The transfected cell line, MDCK_MDR1_BCRP, thus expresses the two main efflux pumps that actively serve to exclude transit of compounds across the BBB and the efflux ration from these cell can be measured as described in the literature (Durant et al, Sci. Adv. 2018; eeat:1719). A compound that has an efflux ratio of 2 or less as measured by this technique is identified as having the potential for good BBB penetrant properties (Colclough et al, Drug Disc. Today 2019; 24(5), 1067-73).

[2] = biological target: T1, KRasG12C (Homo sapiens, UniProt P01116, G12C); assay: KRasG12C functional assay (HTRF/FRET nucleotide exchange and Raf RBD binding); format: biochemical; details: samples incubated for 4 hrs, FRET readout, single experiment or average of two or more
T1 construct: biotin (biotinylated); made in house
Description: All enzyme and substrate solutions were prepared in assay buffer containing 20 mM HEPES (pH 7.5), 5 mM MgCl2, 150 mM NaCl, and 0.01% Tween 20. […] In a separate mix 20 nM GST-Raf Ras binding domain (GST-Raf RBD, purified in house) and 4 μg/ml anti-GST XL665 antibody (Cisbio) was prepared in assay buffer containing 50 mM Potassium Fluoride and 0.05 mg/ml BSA and equilibrated for 4 hours before adding 0.6 μM Guanosine 5′-[γ-thio]triphosphate (GTPγS, Sigma) and 0.08 μM SOS (purified in house). 5 μl of the GST-RAF RBD mix was then dispensed into each well of the assay plate. […] This is detected simultaneously via the specific binding interaction between active GTPγS KRas^G12C with GST-Raf RBD which brings the europium and XL665 into close proximity enabling an increased FRET signal to be detected on a Pherastar (BMG) plate reader equipped with the HTRF filter module. […] IC50 values were calculated from normalised dose-response response FRET data curve fitted in Genedata screener (Basel, Switzerland).

[3] = GDP loaded biotinylated KRasG12C, read-out: KRasG12C functional assay IC50
[4] = KRasG12C functional assay IC50, GDP loaded biotinylated KRasG12C

T1 sequence (P01116 1-188 isoform P01116-2 G12C): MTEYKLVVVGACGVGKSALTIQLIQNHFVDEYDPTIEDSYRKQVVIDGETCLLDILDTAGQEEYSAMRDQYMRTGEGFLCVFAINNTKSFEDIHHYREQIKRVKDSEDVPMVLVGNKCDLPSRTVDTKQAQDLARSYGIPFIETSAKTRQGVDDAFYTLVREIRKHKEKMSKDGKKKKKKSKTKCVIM

| efflux ratio at 0.1 uM [1] | IC50 [2, 3] [nM] | IC50 [2, 4] [nM] | SMILES |
| --- | --- | --- | --- |
| 0.5 | 67 | – | C=CC(=O)N1CCN2C(=O)c3cc(F)c(-c4c(O)cccc4F)c(Cl)c3OC[C@H]2C1 (single isomer, unassigned) [Example 11] |
| 0.8 | 24 | – | C=CC(=O)N1CCN2Cc3cc(Cl)c(-c4c(O)cccc4F)c(Cl)c3OC[C@H]2C1 (single isomer, unassigned) [Example 27] |
| 1.8 | 42 | – | C=CC(=O)N1CCN2Cc3cc(F)c(-c4c(O)cccc4Cl)c(Cl)c3OC[C@H]2C1 (single isomer, unassigned) [Example 35] |
| 0.9 | 65 | – | C=CC(=O)N1CCN2Cc3cc(F)c(-c4c(O)cccc4C(F)(F)F)c(F)c3OC[C@H]2C1 (single isomer, unassigned) [Example 49] |
| 1.5 | 660 | – | C=CC(=O)N1CCN2Cc3cc(F)c(-c4c(O)cccc4C(F)F)c(F)c3OC[C@H]2C1 (single isomer, unassigned) [Example 53] |
| 0.8 | 32 | – | C=CC(=O)N1CCN2Cc3cc(F)c(-c4c(O)cccc4Br)c(F)c3OC[C@H]2C1 (single isomer, unassigned) [Example 59] |
| 0.3 | 27.7 | – | C=CC(=O)N1CCN2Cc3cc(Cl)c(-c4c(C)cccc4O)c(F)c3OC[C@H]2C1 (single isomer, unassigned) [Example 61] |
| 1.4 | 182 | – | C#Cc1c2c(cc(F)c1-c1c(C)cccc1O)CN1CCN(C(=O)C=C)C[C@@H]1CO2 (single isomer, unassigned) [Example 65] |
| 0.8 | – | 18.6 | C#Cc1cc2c(c(F)c1-c1c(O)cccc1Cl)OC[C@H]1CN(C(=O)C=C)CCN1C2 (single isomer, unassigned) [Example 76] |
| – | – | 937 | C#Cc1cc2c(c(F)c1-c1c(O)cccc1Cl)OC[C@H]1CN(C(=O)C=C)CCN1C2 (single isomer, unassigned) [Example 77] |
| 0.7 | 83 | – | C#Cc1cc2c(c(Cl)c1-c1c(O)cccc1F)OC[C@H]1CN(C(=O)C=C)CCN1C2 (single isomer, unassigned) [Example 80] |
| – | 61 | – | C=CC(=O)N1CCN2Cc3c(c(Cl)c(-c4c(O)cccc4Cl)c4ncn(C)c34)OC[C@H]2C1 (single isomer, unassigned) [Example 82] |
| 0.6 | – | 25 | C=CC(=O)N1CCN2Cc3cc(Cl)c(-c4c(O)cccc4Cl)c(F)c3OC[C@H]2C1 (single isomer, unassigned) [Example 84] |
| 0.9 | – | 15 | C=CC(=O)N1CCN2Cc3cc(C#CC)c(-c4c(O)cccc4Cl)c(F)c3OC[C@H]2C1 (single isomer, unassigned) [Example 86] |
| – | 13 | – | C#Cc1nc2c(c(Cl)c1-c1c(O)cccc1Cl)OC[C@@H]1CN(C(=O)C=C)CCN1C2 (single isomer, unassigned) [Example 88] |
| 0.6 | 54 | – | C#Cc1cc2c(c(C)c1-c1c(O)cccc1Cl)OC[C@H]1CN(C(=O)C=C)CCN1C2 (single isomer, unassigned) [Example 90] |
| 0.7 | 53 | – | C=CC(=O)N1CCN2Cc3c(F)c(F)c(-c4c(O)cccc4Cl)c(Cl)c3OC[C@H]2C1 (single isomer, unassigned) [Example 92] |
| – | – | 14 | C=CC(=O)N1CCN2Cc3cc(OC(F)F)c(-c4c(O)cccc4Cl)c(F)c3OC[C@H]2C1 (single isomer, unassigned) [Example 94] |
| 0.9 | 19 | – | C#Cc1c(F)c2c(c(F)c1-c1c(O)cccc1Cl)OC[C@H]1CN(C(=O)C=C)CCN1C2 (single isomer, unassigned) [Example 95] |

| efflux ratio at 0.1 uM [1] | IC50 [2, 3] [nM] | IC50 [2, 4] [nM] | SMILES |
| --- | --- | --- | --- |
| – | 11 | – | C=CC(=O)N1CCN2Cc3cc(OC(F)F)c(-c4c(O)cccc4Cl)c(Cl)c3OC[C@H]2C1 (single isomer, unassigned) [Example 98] |
| – | – | 80 | C=CC(=O)N1CCN2Cc3cc(OC4CC4)c(-c4c(O)cccc4Cl)c(F)c3OC[C@H]2C1 (single isomer, unassigned) [Example 100] |
| – | 28 | – | C=CC(=O)N1CCN2Cc3cc(C#CCN(C)C)c(-c4c(O)cccc4Cl)c(F)c3OC[C@H]2C1 (single isomer, unassigned) [Example 102] |
| – | 27 | – | C=CC(=O)N1CCN2Cc3cc(OCc4ccncc4)c(-c4c(O)cccc4Cl)c(F)c3OC[C@H]2C1 (single isomer, unassigned) [Example 104] |
| – | 43 | – | C=CC(=O)N1CCN2Cc3cc(OCCOC)c(-c4c(O)cccc4Cl)c(Cl)c3OC[C@H]2C1 (single isomer, unassigned) [Example 106] |
| – | 64 | – | C=CC(=O)N1CCN2Cc3cc(OCCN4CCCCC4)c(-c4c(O)cccc4Cl)c(F)c3OC[C@H]2C1 (single isomer, unassigned) [Example 108] |
| – | 55 | – | C=CC(=O)N1CCN2Cc3c(OCCN(C)C)cc(-c4c(O)cccc4Cl)c(F)c3OC[C@H]2C1 (single isomer, unassigned) [Example 115] |
| – | 53 | – | C=CC(=O)N1CCN2Cc3c(OCCN(C)C)cc(-c4c(O)cccc4Cl)c(F)c3OC[C@H]2C1 (single isomer, unassigned) [Example 116] |
| – | 30 | – | C=CC(=O)N1CCN2Cc3c(C#CC)nc(-c4c(O)cccc4Cl)c(Cl)c3OC[C@H]2C1 (single isomer, unassigned) [Example 118] |
| – | 51 | – | C#Cc1nc(-c2c(O)cccc2Cl)c(Cl)c2c1CN1CCN(C(=O)C=C)C[C@@H]1CO2 (single isomer, unassigned) [Example 120] |
| – | 157 | – | C=CC(=O)N1CCN2Cc3c(OC)cc(-c4c(O)cccc4F)c(Cl)c3OC[C@H]2C1 [Example 5, 1-[(12aR)-10-Chloro-9-(2-fluoro-6-hydroxyphenyl)-7-methoxy-3,4,12,12a-tetrahydro-6H-pyrazino[2,1-c][1,4]benzoxazepin-2(1H)-yl]prop-2-en-1-one] |
| – | 103 | – | C=CC(=O)N1CCN2C(=O)c3c(O)cc(-c4c(O)cccc4F)c(Cl)c3OC[C@H]2C1 [Example 6, (12aR)-10-chloro-9-(2-fluoro-6-hydroxyphenyl)-7-hydroxy-2-(prop-2-enoyl)-1,2,3,4,12,12a-hexahydro-6H-pyrazino[2,1-c][1,4]benzoxazepin-6-one] |
| – | 1280 | – | C=CC(=O)N1CCN2Cc3c(-n4ccnc4)cc(-c4c(O)cccc4F)c(Cl)c3OC[C@H]2C1 [Example 15, 1-[(12aR)-10-Chloro-9-(2-fluoro-6-hydroxyphenyl)-7-(1H-imidazol-1-yl)-3,4,12,12a-tetrahydro-6H-pyrazino[2,1-c][1,4]benzoxazepin-2(1H)-yl]prop-2-en-1-one] |
| – | 430 | – | C=CC(=O)N1CCN2Cc3c(C#N)cc(-c4c(O)cccc4F)c(Cl)c3OC[C@H]2C1 [Example 16, (12aR)-10-Chloro-9-(2-fluoro-6-hydroxyphenyl)-2-(prop-2-enoyl)-1,2,3,4,12,12a-hexahydro-6H-pyrazino[2,1-c][1,4]benzoxazepine-7-carbonitrile] |
| – | 361 | – | C=CC(=O)N1CCN2Cc3c(-n4cccn4)cc(-c4c(O)cccc4F)c(Cl)c3OC[C@H]2C1 [Example 17, 1-[(12aR)-10-Chloro-9-(2-fluoro-6-hydroxyphenyl)-7-(1H-pyrazol-1-yl)-3,4,12,12a-tetrahydro-6H-pyrazino[2,1-c][1,4]benzoxazepin-2(1H)-yl]prop-2-en-1-one] |
| – | 790 | – | C=CC(=O)N1CCN2Cc3c(Cl)nc(-c4c(O)cccc4F)c(Cl)c3OC[C@H]2C1 [Example 68, 1-[(6aR)-1,4-Dichloro-3-(2-fluoro-6-hydroxyphenyl)-6a,7,9,10-tetrahydro-12H-pyrazino[2,1-c]pyrido[3,4-f][1,4]oxazepin-8(6H)-yl]prop-2-en-1-one] |
| – | 618 | – | C=CC(=O)N1CCN2Cc3c(c(Cl)c(-c4c(O)cccc4F)[nH]c3=O)OC[C@H]2C1 [Example 69, (6aR)-4-Chloro-3-(2-fluoro-6-hydroxyphenyl)-8-(prop-2-enoyl)-2,6,6a,7,8,9,10,12-octahydro-1H-pyrazino[2,1-c]pyrido[3,4-f][1,4]oxazepin-1-one] |
| – | 83 | – | C=CC(=O)N1CCN2Cc3cc(COC)c(-c4c(O)cccc4Cl)c(Cl)c3OC[C@H]2C1 [Example 114, 1-[(12aR)-10-Chloro-9-(2-chloro-6-hydroxyphenyl)-8-(methoxymethyl)-3,4,12,12a-tetrahydro-6H-pyrazino[2,1-c][1,4]benzoxazepin-2(1H)-yl]prop-2-en-1-one] |
